Reference: paper PMC4640066 (Nature Communications, 2015)

Assays:
[1] = test system: γ-tubulin-dependent, RanQ69L-stimulated aster formation; assay: RanQ69L-stimulated aster formation in M-phase Xenopus egg extracts; type: biochemical
Protocol: Cytostatic factor (CSF)-arrested M phase Xenopus egg extracts (CSF extracts) were prepared. Briefly, unfertilized eggs were crushed by 10,700g centrifugation for 20 min. M phase extracts were mixed with 0.5 μM Cy3-labelled α/β-tubulin and various concentrations of compounds. After incubation for 30 min on ice, 15 μM RanQ69L, 200 sperm nuclei per μl or 5% DMSO were added and incubated for 30 min on ice. After incubation for 20 min at 20 °C (for the samples with sperm nuclei, the incubation time was 30 min), 1.5 μl sample was fixed with 1.5 μl fix solution (0.3 volume of 37% formaldehyde, 0.6 volume of 80% glycerol and 0.1 vol of 10 × MMR solution (50 mM HEPES, pH 7.8, 1 M NaCl, 20 mM KCl, 10 mM MgCl2, 20 mM CaCl2 and 1 mM EDTA)), followed by the squash fix.
Images were acquired using a microscope (Axiovert 200 M; Carl Zeiss Inc.) equipped with a plan-Apochromat × 63 NA 1.3 oil objective lens (Carl Zeiss Inc.), a Cy3 emission filter and a Cascade:1 K (Photometrics Inc.) camera, and the AxioVision software (Carl Zeiss Inc.). The aster size and fluorescence intensity were quantified using a macro written in MATLAB[41].

[2] = test system: HeLa cells expressing EB3-EGFP (interphase); assay: EB3-EGFP signal tracking, interphase cells; type: cell-based, human; conditions: 15 min; for Track length / Track lifetime / Velocity: interphase HeLa EB3-EGFP, mean±s.d.; for Track numbers: interphase, from a 144-μm^2 area inside the cell
Protocol: (§1) A HeLa ‘Kyoto' cell line stably expressing EB3-EGFP (a kind gift from Dr J. Ellenberg) was maintained in DMEM+GlutaMAX (Gibco) supplemented with 10% FBS, 2 mM L-glutamine, 100 U ml^−1 penicillin, 100 μg ml^−1 streptomycin, 1 mM sodium pyruvate and 0.5 mg ml^−1 G418. Cells were seeded into eight-well Lab-Tek chambers (Nunc, Rochester, NY) for 24-h prior imaging. For imaging, the medium was exchanged to Live Cell Imaging Solution (Molecular Probes Life Technologies) supplemented as described above and containing various concentrations of AG1 or gatastatin. Interphase cells were incubated with drugs for 15 min and mitotic cells were treated as described in Fig. 4c. Then, EB3 tracks were observed under a PerkinElmer UltraVIEW ERS Spinning Disk microscope (Software: UltraVIEW ERS Imaging Suite) equipped with a Plan-APOCHROMAT × 100/1.4 Oil DIC objective, a Confocal Scanner Unit (Yokogawa CSU 22), a Hamamatsu EM CCD camera (C9100-50) and a 488-nm Argon laser at 37 °C, and time-lapse sequences were performed for 60 s with a 400-ms interval. Automatic analysis of EB3-EGFP signal tracks was performed with ImageJ (http://imagej.nih.gov/ij/) and Matlab (Mathworks) as described.

[3] = test system: HeLa cells expressing EB3-EGFP (mitotic spindle); assay: EB3-EGFP signal tracking, mitotic (MG132 metaphase) cells; type: cell-based, human; conditions: 30 μM
Protocol: Figure 4 Impact of gatastatin on mitotic spindle dynamics. (a,b) γ-Tubulin function is important for normal bipolar spindle formation. (a) Scheme of the experiment in b. HeLa cells were arrested at prometaphase by treatment with 10 μM of STLC for 15 h before STLC was washed out. Progression through mitotic phases was then monitored either in the presence or absence of 30 μM of gatastatin for 2 h. (b) The mitotic stages of 20 cells per experiment from the scheme in a were analysed in three independent experiments. Error bars represent s.d. (c–e) γ-Tubulin function is important for normal bipolar spindle maintenance. (c) Scheme of the experiment in d,e. After STLC washout, HeLa cells were arrested at metaphase with bipolar spindles by treatment with 5 μM of MG132 for 2 h. 30 μM Gatastatin was added to cells and incubated for 2 h in the presence of MG132. (d) The spindle length (distance between centrosomes) of cells in scheme c was measured as described in Fig. 3g. Spindles of 20 cells per experiment were analysed. Three independent experiments were performed and one representative experiment is shown. Error bars represent s.d. Two-tailed, unpaired Student's t-test was used to obtain P value. (e) The effect of gatastatin on spindle MT dynamics was analysed using HeLa cells expressing EB3-EGFP. EB3 signals of spindle in c were monitored. […] Scale bar, 5 μm.
as §1

[4] = target: T1, porcine brain α/β-tubulin (Sus scrofa, UniProt P02550+P02554); assay: In vitro MT polymerization assay (glutamate, paclitaxel or Tau stimulated); type: biochemical; conditions: absence of γ-tubulin; absorbance at 350 nm, 37 °C
T1 construct: α/β-Tubulin was purified from porcine brain; from tissue; host or cells: porcine brain
Protocol: For glutamate-stimulated MT polymerization, 1 mg ml^−1 porcine brain α/β-tubulin was mixed with glutamate (final concentration 1 M) and GTP (final concentration 1 mM) in RB buffer on ice. For paclitaxel-stimulated MT polymerization, 1 mg ml^−1 porcine brain α/β-tubulin was mixed with paclitaxel (final concentration 10 μM) and GTP (final concentration 1 mM) in RB buffer on ice. For recombinant Tau protein-stimulated MT polymerization, 1 mg ml^−1 α/β-tubulin purified from porcine brain and Tau protein were mixed with GTP (final concentration 1 mM) in RB buffer on ice. For γ-TuSC-stimulated MT polymerization, γ-TuSC was mixed with GTP (final concentration 1 mM). One of the compounds and α/β-tubulin were then added. Samples were transferred into cuvettes. Tubulin polymerization was monitored using the absorbance at 350 nm at 37 °C using a thermostatic spectrophotometer (Beckman Coulter).

HeLa cells = assay: Bipolar spindle establishment after STLC washout; type: cell-based, human; conditions: 30 μM, 2 h after STLC washout
Protocol: To analyse bipolar spindle establishment from monopolar spindles, HeLa cells were arrested at prometaphase with 10 μM of STLC for 15 h. STLC was removed by washing cells with the medium three times. After treatment with 1% DMSO or 30 μM of gatastatin for 2 h, cells were immediately fixed with cold MeOH (−20 °C).
Immunostaining was performed as described above using anti-α-tubulin (1:250 dilution, Santa Cruz, Cat# sc-32293) and anti-pericentrin (1:250 dilution, Abcam, Cat# ab4448) antibodies. Spindle structure was observed under a Leica LAS AF 6000 fluorescence microscope (Leica Microsystems). The measurement of spindle length was performed as described above.

[5] = 2 h with MG132, mitotic HeLa EB3-EGFP, mean±s.d.

T1 sequence (P02550 whole entry): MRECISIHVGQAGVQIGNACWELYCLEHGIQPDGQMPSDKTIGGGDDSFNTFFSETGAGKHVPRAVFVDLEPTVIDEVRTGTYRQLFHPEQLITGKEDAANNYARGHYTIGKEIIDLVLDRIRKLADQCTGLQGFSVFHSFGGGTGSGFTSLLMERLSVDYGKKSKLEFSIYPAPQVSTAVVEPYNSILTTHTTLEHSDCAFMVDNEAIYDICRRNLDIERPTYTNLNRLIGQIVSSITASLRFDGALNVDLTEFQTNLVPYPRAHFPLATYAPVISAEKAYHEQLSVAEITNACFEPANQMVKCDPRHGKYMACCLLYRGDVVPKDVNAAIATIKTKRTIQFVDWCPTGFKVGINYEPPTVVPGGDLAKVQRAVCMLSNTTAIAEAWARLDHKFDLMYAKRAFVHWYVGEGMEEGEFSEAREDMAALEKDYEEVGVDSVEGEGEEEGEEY
T1 sequence (P02554 whole entry): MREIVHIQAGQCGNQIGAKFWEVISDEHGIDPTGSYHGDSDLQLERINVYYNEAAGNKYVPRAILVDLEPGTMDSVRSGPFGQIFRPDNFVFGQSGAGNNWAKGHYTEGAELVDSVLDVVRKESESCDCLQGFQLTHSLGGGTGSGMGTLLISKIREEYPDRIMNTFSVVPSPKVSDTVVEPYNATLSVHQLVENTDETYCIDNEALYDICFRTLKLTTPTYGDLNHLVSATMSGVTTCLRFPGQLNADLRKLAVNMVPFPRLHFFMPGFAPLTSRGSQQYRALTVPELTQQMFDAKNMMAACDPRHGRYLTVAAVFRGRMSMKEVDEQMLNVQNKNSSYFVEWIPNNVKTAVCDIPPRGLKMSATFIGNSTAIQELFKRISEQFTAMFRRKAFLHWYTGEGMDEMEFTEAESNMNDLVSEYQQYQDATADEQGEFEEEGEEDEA

IC50 ([1]; M-phase-arrested Xenopus egg extracts, 15 μM RanQ69L, 20 min at 20 °C): 9.7 µM
SMILES: COc1cc2c(=O)c(-c3cc(OC)c4c(c3OC)OCO4)coc2cc1OCc1ccccc1 [Gatastatin, O^7-demethylbenzyl AG1]
Effect on number of RanQ69L-dependent asters ([1]; Xenopus egg extracts): without changing the number of asters
Track length ([2]; 3 μM): 1.03±0.16 μm
Track lifetime ([2]; 3 μM): 3.45 ± 0.71 s
Velocity ([2]; 3 μM): 12.49±1.67 μm min^−1
Track numbers ([2]; 3 μM): 94±27
Track length ([2]; 10 μM): 0.84±0.10 μm
Track lifetime ([2]; 10 μM): 3.67 ± 0.62 s
Velocity ([2]; 10 μM): 10.03±0.99 μm min^−1
Track numbers ([2]; 10 μM): 83±30
Track length ([2]; 30 μM): 0.71±0.08 μm
Track lifetime ([2]; 30 μM): 3.84 ± 0.50 s
Velocity ([2]; 30 μM): 8.43±0.81 μm min^−1
Track numbers ([2]; 30 μM): 89±32
Track length [3, 5]: 0.53±0.09 μm
Track lifetime [3, 5]: 1.76 ± 0.66 s
Velocity [3, 5]: 11.21±1.68 μm min^−1
Track numbers ([3]; 2 h with MG132, mitotic, from a 25-μm^2 area in the spindle): 37.27±8.12
Reduction of the number of growing MTs ([3]; preformed metaphase spindle (MG132), compared with control): 17%
Effect on MT polymerization in vitro induced by glutamate, paclitaxel or recombinant Tau protein [4]: failed to impair MT polymerization in vitro
Cells unable to assemble a metaphase-like spindle on STLC washout (HeLa cells): 87%
